Data reported in ChEMBL document CHEMBL1148373, “2-amino-O4-benzylpteridine derivatives: potent inactivators of O6-alkylguanine-DNA alkyltransferase” (2004).
Active and inactive are the calls of the source. The rule behind the calls is not given here.

Key:
HT-29 [1] = assay: Effective dose required to kill 90% of HT-29 cells with BCNU (40 uM); RPMI medium; format: functional, Homo sapiens
[2] = target: T1, Methylated-DNA--protein-cysteine methyltransferase (Homo sapiens) (UniProt P16455)
T1 sequence (whole entry): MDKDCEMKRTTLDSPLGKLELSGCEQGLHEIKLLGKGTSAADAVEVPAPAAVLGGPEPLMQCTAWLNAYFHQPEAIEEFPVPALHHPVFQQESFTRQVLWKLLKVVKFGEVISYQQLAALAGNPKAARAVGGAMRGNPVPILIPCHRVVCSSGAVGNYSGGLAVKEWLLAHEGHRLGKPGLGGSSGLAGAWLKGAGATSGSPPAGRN
Description: In vitro inactivation of human O6-alkylguanine-DNA alkyltransferase in the absence of calf thymus DNA (ctDNA)

HT-29 [3] = assay: Effective dose required to kill 90% of HT-29 cells with BCNU (40 Dulbecco''s medium; format: functional, Homo sapiens
[4] = target: T1, Methylated-DNA--protein-cysteine methyltransferase (Homo sapiens); remark: listed apart in the source
Description: In vitro inactivation of human O6-alkylguanine-DNA alkyltransferase in the presence of calf thymus DNA (ctDNA)

HT-29 [5] = assay: Effective dose required to kill 90% of HT-29 cells with BCNU (40 uM); folate-free RPMI medium; format: functional, Homo sapiens
HT-29 [6] = assay: Effective dose required to kill 90% of HT-29 cells with BCNU (40 uM); format: functional, Homo sapiens
HT-29 [7] = assay: Effective dose required to kill 90% HT-29 cells with BCNU (40 uM); format: functional, Homo sapiens
HT-29 [8] = assay: Effective dose required to kill 90% of HT-29 cells with BCNU (40 uM; format: functional, cell-based; details: Homo sapiens

Nc1nc(OCc2ccccc2)c2nc[nH]c2n1 [6-O-BENZYLGUANINE]
ED90 (HT-29 [1]): 700 nM
ED50 [2]: 320 nM
ED90 (HT-29 [3]): 400 nM
ED50 [4]: 120 nM

Nc1nc(OCc2ccccc2)c2nc(CNc3ccc(C(=O)N[C@@H](CCC(=O)O)C(=O)O)cc3)cnc2n1
ED90 (HT-29 [1]): 24000 nM
ED90 (HT-29 [5]): 15000 nM

Cc1nc2nc(N)nc(OCc3ccccc3)c2nc1C
ED90 (HT-29 [6]): 600 nM

Nc1nc(OCc2ccccc2)c2nc(CO)cnc2n1
ED90 (HT-29 [7]): 700 nM

Nc1nc(OCc2ccccc2)c2nccnc2n1
ED90 (HT-29 [6]): 200 nM

Nc1nc(OCc2ccccc2)c2nc(C(=O)O)cnc2n1
ED90 (HT-29 [8]): inactive

Nc1nc(OCc2ccccc2)c2nc(C=O)cnc2n1
ED90 (HT-29 [6]): 700 nM
